Tests used:
Assay type in all cases: in vivo, human
[1] = test system: Subjects Having Insomnia Disorder; assay: Example 2: Insomnia Severity Index Daytime Functioning (Items 4-7); settings: Day 31; Zolpidem ER 6.25 mg
Description: As used herein, the term “Insomnia Severity Index”, abbreviated as “ISI”, is an index calculated using a 7-item, self-report questionnaire assessing the nature, severity, and impact of insomnia (see Bastien, C. H., et al. “Validation of the Insomnia Severity Index as an outcome measure for insomnia research.” Sleep Med. 2001; 2(4): 297-307). The questionnaire evaluates: (1) severity of sleep onset; (2) sleep maintenance; (3) early morning awakening problems; (4) sleep dissatisfaction; (5) interference caused by sleep difficulties with daytime functioning; (6) noticeability of sleep problems by others; and (7) distress caused by the sleep difficulties. A 5-point scale is used to rate each item (0=no problem to 4=very severe problem) yielding a total score from 0 to 28. Total ISI score (items (1)-(7)) and daytime functioning (items (4)-(7)) are analyzed separately.
On day 1 of the baseline period, subjects were admitted to the clinic and ISI, FSS, and EQ-5D-3L were administered. Blood and urine samples were collected for routine safety assessments, an ECG was performed, and vital signs and weight were assessed. The eC-SSRS was administered. Subjects who completed the baseline period and continued to meet the eligibility criteria were randomized and began the randomization phase.
(§1) On the evening of Day 30, subjects returned to the clinic. A pre-dose blood sample was collected and study drug was again administered within 5 minutes of the subject's mean habitual bedtime. A polysomnogram recording was initiated. The following morning (Day 31), postural stability and cognitive performance were assessed and a blood sample was obtained. The ISI, FSS, EQ-5D-3L and PGI-Insomnia were administered. Blood and urine samples were collected for routine safety assessment. An electrocardiogram was performed, and vital signs and weight were assessed. The eC-SSRS was then administered to the subject. At 1.5 hours after waketime, subjects rated their morning sleepiness level.

[2] = test system: Subjects Having Insomnia Disorder; assay: Example 2: subjective sleep efficiency (sSE), sleep diary; settings: Zolpidem ER 6.25 mg
Description: As used herein, the term “subjective sleep efficiency”, abbreviated as “sSE”, means the proportion of sTST per subjective time spent in bed, calculated as the interval from the time the subject reports attempting to sleep until the time the subject stopped trying to sleep for the night (operationalized as the time the subject got out of bed for the day), and time spent asleep derived from subjective time spent in bed minus sWASO. As used herein, an “improvement of sleep efficiency in Subjective Sleep Efficiency (sSE)” means an increase in sleep efficiency in Subjective Sleep Efficiency (sSE).
In some embodiments, sleep diaries were used to assess sleep parameters reported by subjects (i.e., subjective assessments) including subjective sleep onset latency (sSOL), subjective sleep efficiency (sSE), subjective WASO (sWASO), and subjective total sleep time (sTST). Subjects were instructed to complete the Sleep Diary developed based on the consensus Sleep Diary as described in Carney et al., “The consensus sleep diary: standardizing prospective sleep self-monitoring,” Sleep 2012; 35(2):287-302. In some embodiments, the Sleep Diary was used to assess the subject's global perception of quality of sleep on the previous night with the following question: “How would you rate the quality of your sleep last night?” Subjects rated the quality of their sleep on a scale from 1 to 9, with 1 being extremely poor and 9 being extremely good. In some embodiments, the Sleep Diary was used to assess subjective ratings of morning sleepiness with the following question: “How alert/sleepy do you feel this morning?” Subjects rated their sleepiness/alertness level on a Likert scale from 1 to 9, with 1 being extremely sleepy and 9 being extremely alert.
sSE—subjective sleep efficiency: proportion of sTST per subjective time spent in bed, calculated as the interval from the time the subject reports attempting to sleep until the time the subject stopped trying to sleep for the night (operationalized as the time the subject got out of bed for the day), and time spent asleep derived from subjective time in bed minus sWASO.
(§2) The treatment period lasted for 31 days. Subjects were randomized in a double-blind manner and received placebo, a tablet containing 5 mg of lemborexant, a tablet containing 10 mg of lemborexant, or a tablet containing 6.25 mg of zolpidem ER.
Once home, the subject ingested study drug each night prior to bedtime and completed their sleep diary within 1 hour of waketime.

[3] = test system: Subjects Having Insomnia Disorder; assay: Example 2: sleep efficiency (SE), polysomnography; settings: Zolpidem ER 6.25 mg
Description: (§3) In some embodiments, a sleep parameter is determined objectively using polysomnography. Polysomnography is the monitoring of multiple electrophysiological parameters during sleep and generally includes measurement of EEG activity, electro-oculographic activity and electromyographic activity, as well as other measurements.
SE—sleep efficiency: proportion of time spent asleep per time in bed, calculated as TST/interval from lights off until lights on.
as §2
(§4) Within 5 minutes of the subject's mean habitual bedtime, study drug was administered and an overnight polysomnogram recording was initiated. At completion of the recording the following morning (Day 2), postural stability and cognitive performance were assessed. On the Day 2 evening, subjects returned to the clinic and a blood sample was collected before administering study drug, and then study drug was administered within 5 minutes of the subject's mean habitual bedtime. Again, a polysomnogram recording was initiated. The next morning (Day 3), postural stability and cognitive performance were assessed. A blood sample was also collected.
(§5) On Day 29, subjects returned to the clinic. Study drug was administered within 5 minutes of the subject's mean habitual bedtime and a polysomnogram recording was conducted. On the following morning (Day 30), postural stability and cognitive performance were assessed. After 1.5 hours of waketime, subjects rated their morning sleepiness level.
as §1
One key secondary endpoint was to determine the change from baseline for mean sleep efficiency on Days 29 and 30 after administration of 5 mg or 10 mg of lemborexant, compared to placebo.

[4] = test system: Subjects Having Insomnia Disorder; assay: Example 2: total sleep time (TST), polysomnography; settings: Zolpidem ER 6.25 mg
Description: as §3
TST—total sleep time: minutes of sleep from sleep onset until terminal awakening.
as §2, §4, §5, §1

Cc1ccc(-c2nc3ccc(C)cn3c2CC(=O)N(C)C)cc1 [Zolpidem ER, zolpidem, reference compound]
Insomnia Severity Daytime Functioning (Items 4-7), Change from Study Baseline, Mean (SD) [1]: −5.24 (3.764)
Insomnia Severity Daytime Functioning (Items 4-7), Change from Study Baseline, Median [1]: −5.00
Insomnia Severity Daytime Functioning (Items 4-7), Mean (SD) [1]: 5.87 (3.417)
Insomnia Severity Daytime Functioning (Items 4-7), Median [1]: 6.00
Subjective Sleep Efficiency, Change from Study Baseline, Mean (SD) ([2]; First 7 Nights of Treatment): 11.96 (12.526)
Subjective Sleep Efficiency, Mean (SD) ([2]; First 7 Nights of Treatment): 66.45 (16.419)
Subjective Sleep Efficiency, Model-adjusted change from baseline ([2]; First 7 Nights of Treatment): 12.11
Subjective Sleep Efficiency, Change from Study Baseline, Mean (SD) ([2]; Last 7 Nights of Treatment): 14.83 (15.011)
Subjective Sleep Efficiency, Mean (SD) ([2]; Last 7 Nights of Treatment): 69.45 (16.925)
Subjective Sleep Efficiency, Model-adjusted change from baseline ([2]; Last 7 Nights of Treatment): 14.82
Sleep Efficiency, Change from Study Baseline, Mean (SD) ([3]; Days 1/2): 11.70 (9.725)
Sleep Efficiency, Change from Study Baseline, Median ([3]; Days 1/2): 10.83
Sleep Efficiency, Mean (SD) ([3]; Days 1/2): 79.85 (8.461)
Sleep Efficiency, Median ([3]; Days 1/2): 80.73
Sleep Efficiency, Change from Study Baseline, Mean (SD) ([3]; Days 29/30): 9.06 (11.230)
Sleep Efficiency, Change from Study Baseline, Median ([3]; Days 29/30): 8.39
Sleep Efficiency, Mean (SD) ([3]; Days 29/30): 77.17 (10.185)
Sleep Efficiency, Median ([3]; Days 29/30): 78.70
Total Sleep Time, Change from Study Baseline, Mean (SD) ([4]; Days 1/2): 55.31 (48.138)
Total Sleep Time, Change from Study Baseline, Median ([4]; Days 1/2): 52.00
Total Sleep Time, Mean (SD) ([4]; Days 1/2): 382.42 (41.528)
Total Sleep Time, Median ([4]; Days 1/2): 387.25
Total Sleep Time, Change from Study Baseline, Mean (SD) ([4]; Days 29/30): 43.34 (54.012)
Total Sleep Time, Change from Study Baseline, Median ([4]; Days 29/30): 39.63
Total Sleep Time, Mean (SD) ([4]; Days 29/30): 370.25 (48.855)
Total Sleep Time, Median ([4]; Days 29/30): 377.75

Reference: patent publication US20220305012A1, “L[…] TREATING SLEEP ISSUES” (EISAI R&D MANAGEMENT CO., LTD., priority 2019, published 2022)
